Measurements from paper PMC6753678, “Fueling Open Innovation for Malaria Transmission-Blocking Drugs: Hundreds of Molecules Targeting Early Parasite Mosquito Stages” (Frontiers in Microbiology, 2019).
Where two headings read alike, the source gives them in different places.

Tests used:
[1] = tested on: 3D7-strain P. falciparum asexual parasites; assay: P. falciparum asexual growth inhibition assay (Pf GIA); format: cell-based, Plasmodium falciparum; settings: dose response confirmation; read-out: Pf asexual growth inhibition assays IC50
In short: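 Steps: seed parasites (0.25% parasitemia, 2% hematocrit) onto compound dilutions; incubate 72 h at 37°C, 5% O2/5% CO2; freeze at −70°C and thaw; add LDH reaction mix, read A650 after 10 min. Percent growth inhibition derived from chloroquine and DMSO controls, averaged over three biological replicates.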

[2] = tested on: HepG2 cells; assay: HepG2 cytotoxicity assay; settings: for Pb ODA (this manuscript) HepG2 cytoxicity: HepG2 cytotoxicity listed with the Pb ODA data set (this manuscript); for IC50: read-out: HepG2 cytotoxicity assay IC50, dose response confirmation
In short: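 Cells are plated at 2,500 per well on compound-treated plates in MEM containing 10% fetal bovine serum and 1% NEAA, then incubated 48 h at 37°C.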

[3] = tested on: P. berghei ookinete development; settings: for % inhibition, Replicate A / % inhibition, Replicate B: primary screen at 1 μM
[4] = read-out: Pb ODA (this manuscript) IC50, P. berghei ookinete development assay, this manuscript
[5] = read-out: Pb Ookinete development assay IC50, dose response confirmation
[6] = unified HepG2 value across the three screens
[7] = read-out: Pb ODA IC50, this manuscript
[8] = HepG2 values of the three screens unified

| Compound | IC50 [1] [nM] | Pb ODA (this manuscript) HepG2 cytoxicity [2] [µM] | IC50 [2] [µM] | Is compound selective in assay? Pb ODA active? [3] | % inhibition, Replicate A [3] [%] | % inhibition, Replicate B [3] [%] | IC50 [3, 4] [nM] | IC50 [3, 5] [nM] | Unified cytotox [2, 6] [µM] | Is compound selective in assay? Pb ODA active? ([3]; 1: YES, 0: NO) | IC50 [3, 7] [nM] | HepG2 cytoxicity (Pb ODA, this manuscript) [2] [µM] | Unified cytotox [2, 8] [µM] |
| --- | --- | --- | --- | --- | --- | --- | --- | --- | --- | --- | --- | --- | --- |
| O=C(Nc1ccc(N2CCCN(Cc3cccc(F)c3)CC2)cc1)c1cccs1.O=C(O)C(F)(F)F [TCMDC-135012] | 650 | 78.52 | 78.5 | 1 (key: 1: YES; 0: NO) | 50.47 | 51.73 | 1900 | 1900 |  |  |  |  |  |
| CN(Cc1cccc(F)c1)C1CCN(c2cc(NC(=O)c3ccc(F)cc3)ccn2)CC1.O=C(O)C(F)(F)F [TCMDC-135018] | 31 |  | 0.14 |  | 54.82 | 42.75 |  | 6060 | 0.14 | 0 (0: NO) | 6060 |  |  |
| O=C(O)C(F)(F)F.O=c1[nH]ccc2nc(N[C@@H]3CCCNC3)nc(Nc3ccc(S(=O)(=O)N4CCOCC4)cc3)c12 [TCMDC-135038] | 347 |  | 45.7 |  | 53.41 | 58.16 |  | 1540 | 45.71 | 1 (1: YES) | 1550 |  |  |
| C=CCOc1ccc(-c2c(C)[nH]c(C)c(Br)c2=O)cc1 [TCMDC-135042] | 226 | 7.08 | 7.08 | 1 (key: 1: YES; 0: NO) | 92.87 | 107.55 |  | 700 |  |  |  |  |  |
| COCCn1c(-c2cccc(Cl)c2)nn(-c2ccc([N+](=O)[O-])cc2Cl)c1=S [TCMDC-135130] | 947 |  | 100 |  | 51.94 | 48.77 |  | 1600 | 100.00 | 1 (1: YES) |  |  |  |
| COc1ccc2ncc(C#N)c(CCN3C4CCC3CC(NCc3ccc5c(n3)NC(=O)CS5)C4)c2c1.Cl (stereo not drawn) [TCMDC-135180] | 630 |  | 6.46 |  | 66.14 | 72.52 |  | 3070 |  | 0 (0: NO) | 3070 | 6.46 | 6.46 |
| C#C[C@H]1O[C@@H](n2cnc3c(Nc4cc(Br)cc(C(F)(F)F)c4)ncnc32)[C@H](O)[C@@H]1O [TCMDC-135185] | 3380 |  | 57.5 |  | 92.13 | 83.74 |  | 533 | 57.54 | 1 (1: YES) | 530 |  |  |
| COc1ccc2ncc(C#N)c(CCN3CCC(NCc4ccc5c(n4)NC(=O)CS5)CC3)c2n1.Cl [TCMDC-135188] | 2370 |  | 55 |  | 67.48 | 73.91 |  | 768 |  | 1 (1: YES) | 770 | 54.95 | 54.95 |
| COc1c(C)[nH]c(C)c(-c2ccc(Oc3cccc(C(F)(F)F)c3)cc2)c1=O [TCMDC-135253] | 937 | 1.30 | 1.3 | 0 (key: 1: YES; 0: NO) | 56.53 | 75.40 | 3600 | 3600 |  |  |  |  |  |
| Cc1[nH]c(C)c(-c2ccc(OCc3ccc(OC(F)(F)F)cc3)nc2)c(=O)c1Br [TCMDC-135254] | 122 |  | 87.1 |  | 57.86 | 80.15 |  | 1680 |  | 1 (1: YES) | 1680 | 87.10 | 87.10 |
| Cc1[nH]c(C)c(-c2ccc(OCc3ccc(OC(F)(F)F)cc3)nc2)c(=O)c1Cl [TCMDC-135271] | 67 |  | 100 |  | 71.19 | 76.52 |  | 1070 |  | 1 (1: YES) | 1070 |  | 100.00 |
| COc1cc(NC2=C(c3ccccc3)C(=O)c3ccccc32)ccn1 [TCMDC-135283] | 286 | 100.00 | 100 | 1 (key: 1: YES; 0: NO) | 80.47 | 74.75 | 740 | 743 |  |  |  |  |  |
| CCNC(=O)Nc1ccc(-c2cnc(N)c(-c3nc4ccc(OC)cc4[nH]3)c2)cc1 [TCMDC-135321] | 364 |  | 6.68 |  | 44.00 | 70.87 |  | 2330 | 6.68 | 0 (0: NO) | 2330 |  |  |
| COc1ccc2nc(-c3cc(-c4ccc(NC(=O)C(C)C)cc4)cnc3N)[nH]c2c1 [TCMDC-135322] | 277 |  | 8.61 |  | 29.63 | 78.93 |  | 423 | 8.61 | 1 (1: YES) | 420 |  |  |
| COc1ccc2nc(-c3cc(-c4ccc(NC(C)=O)cc4)cnc3N)[nH]c2c1 [TCMDC-135365] | 1280 |  | 12 |  | 88.78 | 104.70 |  | 442 | 12.02 | 1 (1: YES) | 440 |  |  |
| COc1cc(F)c2ncc(C#N)c(CCN3CCC(NCc4ccc5c(c4)OCCO5)CC3)c2c1.Cl [TCMDC-135367] | 640 |  | 38.9 |  | 88.34 | 59.17 |  | 2170 | 38.90 | 1 (1: YES) | 2170 |  |  |
| Cc1cc(SC(C)(C)C)cc2c(Cl)c(C(N)=O)cnc12 [TCMDC-135415] | 69 |  | 1.36 |  | 28.78 | 60.54 |  | 2710 | 1.36 | 0 (0: NO) | 2710 |  |  |
| Cc1[nH]c2ccc(-c3ccccc3)cc2c(=O)c1Br [TCMDC-135426] | 136 |  | 100 |  | 84.59 | 99.51 |  | 1250 | 100.00 | 1 (1: YES) | 1250 |  |  |
| C=Cc1ccc(-c2c(C)[nH]c(C)c(Br)c2=O)cc1 [TCMDC-135433] | 433 | 57.54 | 57.5 | 1 (key: 1: YES; 0: NO) | 31.67 | 64.44 | 1240 | 1240 |  |  |  |  |  |
